In PMC3510438, “The transmembrane tyrosines Y56, Y91 and Y167 play important roles in determining the affinity and transport rate of the rabbit proton-coupled peptide transporter PepT1” (The International Journal of Biochemistry & Cell Biology, 2009):
Where a chain is given by its changes, count along the chain named.

Legend:
[1] = biological target: T1, Y167F-rPepT1 (Oryctolagus cuniculus, UniProt P36836, Y167F); experiment: Uptake of tracer [3H]-D-Phe-L-Gln into Xenopus oocytes; assay type: cell-based, rabbit
T1 construct: expressed in transfected cells; host or cells: Xenopus laevis oocytes injected with cRNA
T1 sequence (P36836 1-707 Y167F): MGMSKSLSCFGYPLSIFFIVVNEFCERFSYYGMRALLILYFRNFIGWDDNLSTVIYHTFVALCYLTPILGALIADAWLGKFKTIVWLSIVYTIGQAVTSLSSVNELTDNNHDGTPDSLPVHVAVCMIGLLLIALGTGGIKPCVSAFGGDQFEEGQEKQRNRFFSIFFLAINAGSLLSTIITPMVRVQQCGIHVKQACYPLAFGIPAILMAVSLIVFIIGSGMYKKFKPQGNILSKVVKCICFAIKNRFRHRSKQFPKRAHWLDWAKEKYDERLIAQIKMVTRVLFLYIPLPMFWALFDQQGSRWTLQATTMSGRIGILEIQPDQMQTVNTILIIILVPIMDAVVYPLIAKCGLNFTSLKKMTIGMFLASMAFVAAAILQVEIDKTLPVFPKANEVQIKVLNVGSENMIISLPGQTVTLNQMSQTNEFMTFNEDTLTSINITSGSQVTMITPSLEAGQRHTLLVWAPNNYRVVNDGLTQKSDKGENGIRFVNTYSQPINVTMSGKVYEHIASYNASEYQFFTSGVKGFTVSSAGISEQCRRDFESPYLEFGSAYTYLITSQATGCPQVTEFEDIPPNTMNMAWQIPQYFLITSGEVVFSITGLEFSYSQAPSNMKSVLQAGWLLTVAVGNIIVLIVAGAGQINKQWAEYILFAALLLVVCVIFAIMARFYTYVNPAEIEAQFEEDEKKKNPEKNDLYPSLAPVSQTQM
Procedure: (§1) rPepT1 constructs were linearised with XbaI (New England Biolabs, UK) and cRNA generated by in vitro transcription (T7 mMessage mMachine, Ambion, Cambridgeshire, UK). Xenopus laevis oocytes were obtained under MS222 anaesthesia (0.2%, w/v) in accordance with the UK Animals (Scientific Procedures) Act, 1986, and maintained at 18 °C in modified Barth's medium (88 mM NaCl, 1 mM KCl, 0.82 mM MgSO4, 2.4 mM NaHCO3, 0.42 mM CaCl2, 10 mM Hepes, 5 mM sodium pyruvate, 50 μg ml^−1 gentamicin (Fluka, Poole, UK), adjusted to pH 7.6 with 1 M NaOH). Transport measurements were performed at least 72 h after micro-injection of oocytes with 27nl cRNA (1 μg/μl), with medium changed daily.
(§2) Uptake of [^3H]-D-Phe-L-Gln (17.4 Ci/mmole, custom synthesised, Cambridge Research Biochemicals, Stockton-on-Tees, UK) was performed as previously described ([Meredith, 2004]). Briefly, 5 oocytes were incubated in 100 μl of uptake medium (95 mM NaCl, 2 mM KCl, 1 mM CaCl2, 0.42 mM MgCl2, 10 mM Tris/Hepes pH 7.4 or Tris/Mes pH 5.5) with tracer (0.4 μM) [^3H]-D-Phe-L-Gln. After incubation, the oocytes were washed sequentially five times in 1 ml of ice-cold 120 mM NaCl solution, lysed individually with 100 μl 2% (w/v) SDS and liquid scintillation counted. As a control non-injected oocytes were also incubated in uptake medium with D-Phe-L-Gln as above.

[2] = biological target: T2, Y56F/T58Y-rPepT1 (Oryctolagus cuniculus, UniProt P36836, T58Y/Y56F); experiment: as above; assay type: cell-based, rabbit; conditions: both pHout 5.5 and 7.4
T2 construct: expressed in transfected cells; host or cells: Xenopus laevis oocytes injected with cRNA
T2 sequence (P36836 1-707 Y56F/T58Y): T1 sequence (P36836 1-707 Y167F) with Y56F, T58Y, F167Y
Procedure: as §1, §2

- reduction of uptake compared to the wild-type ([1]; both pHout 5.5 and 7.4): > 90%
- decrease in rate of uptake compared to the wild-type ([1]; pHout 5.5, 1 h): ~90%
- reduction of uptake compared to the wild-type [2]: > 90%
Substance: [^3H]-D-Phe-L-Gln
